Laboratory results taken from patent US12491187B2, “Use of MCT1 inhibitors to enhance insulin sensitivity” (H. LEE MOFFIT CANCER CENTER AND RESEARCH INSTITUTE, INC., priority 2022, dated 2025).

System: differentiated 3T3-L1 (WT) cells
Assay: Glucose uptake (Glucose Uptake-Glo) in WT adipocytes
Type: cell-based, murine
Settings: RO-3306 (10 μM) co-treated with AZD3965 (1 μM)
Method: Glucose Uptake: 3T3-L1 cells were seeded and differentiated in clear bottom 96-well plates (Corning®). After differentiation, cells were treated with or without […] AZD3965 for 24 hr, 48 hr or 72 hr as illustrated in FIG. 7 (schematic outline of experimental procedure). The cells were incubated in serum free media the night before performing the assay. The following day/morning, media was changed to serum and glucose free media for 2 hr prior to the experiment. Cells were then stimulated with 175 nM Insulin or vehicle (PBS) for 30 minutes. Glucose Uptake was measured using the Glucose Uptake-Glo™ Assay (Promega®) according to the manufacturer's protocol. The data generated were normalized by dividing the relative luminescence units (RLU) measured in insulin stimulated wells by vehicle treated controls. The aforementioned experiment was repeated in the presence of the CDK1 inhibitor, RO-3306 (10 μM), where indicated (FIG. 5C).

O=C1NC(=NCc2cccs2)S/C1=C\c1ccc2ncccc2c1 [RO-3306]
insulin-stimulated glucose uptake under co-treatment: the effects of AZD3965 were attenuated
